From patent US20090012125A1, “Piperidine Derivatives, Their Process for Preparation, Their Use as Therapeutic Agents and Pharmaceutical Compositions Containing Them” (priority 2006, published 2009) come the findings set out here.

Molecules are shown by their SMILES.

Data set [1] is described as follows: Intrinsic clearance with human liver microsomes. In kind it is in vitro ADME. The note with it: human liver microsomes 1 mg protein/ml, NADPH, pH 7.4. As for the experimental part:
Determination of Intrinsic Clearance with Human Liver Microsomes
Frozen human liver microsomes (BD Gentest, Oxford) were defrosted and were then diluted with 0.1 M pH 7.4 phosphate buffer at 4° C. to 1 mg protein/ml. 0.45 mL aliquots of the microsome suspension were dispensed into flat-bottomed vials (1 per compound) and were allowed to come to room temperature (5 min). During the warming time, 5 μL of solution of each test compound (typically 100 μM in DMSO) was dispensed into separate vials resulting in a final DMSO concentration of 1%. 50 μL of a 10 mM solution of NADPH in phosphate buffer (0.1 M pH 7.4, 37° C.) was added to each vial to initiate metabolism.
50 μL Aliquots of the mixtures were removed at measured intervals and were immediately quenched by addition to 100 μL of methanol cooled in ice. The quenched samples were kept cold (at −20° C. or less) for at least 1 h and were then centrifuged to remove protein
The supernatant solution was analysed using quantitative LCMS for the presence of test compound. From the concentrations of test compound at different time points a T1/2 may be calculated which may be converted to an intrinsic clearance using the equation: CLint=ln 2/T1/2.
In general terms: Liver microsomes are vesicles of endoplasmic reticulum, rich in cytochrome P450 enzymes.

Data set [2] deals with T1, human recombinant CCR3 receptors (Homo sapiens, UniProt P51677).
T1 construct: expressed in transfected cells
T1 sequence (P51677 1-355): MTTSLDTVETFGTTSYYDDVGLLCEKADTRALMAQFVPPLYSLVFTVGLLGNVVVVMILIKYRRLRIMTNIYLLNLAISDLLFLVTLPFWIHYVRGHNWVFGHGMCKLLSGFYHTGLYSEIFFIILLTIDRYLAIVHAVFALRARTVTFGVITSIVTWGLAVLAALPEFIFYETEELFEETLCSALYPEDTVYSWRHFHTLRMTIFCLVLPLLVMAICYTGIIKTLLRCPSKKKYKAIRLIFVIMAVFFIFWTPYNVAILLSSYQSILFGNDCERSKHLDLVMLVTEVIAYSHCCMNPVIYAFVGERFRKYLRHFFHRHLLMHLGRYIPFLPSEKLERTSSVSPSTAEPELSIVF
The experiment in a line: Compound affinity at human recombinant CCR3 receptors by radioligand competition, CHO-K1 cell membranes. In kind it is binding. The note with it: mean of minimum 2 experiments; Cheng-Prussof correction of pIC50; 2 nM [3H] radioligand, 2 h at 37° C.; read-out: CCR3 pKi (converted). On the procedure: Determination of Compound Affinity at Human Recombinant CCR3 Receptors Assessed by Competition Of [^3H]-4-(2,4-dichloro-3-methylphenoxy)-1′-[4-(methylsulfonyl)benzoyl]-1,4′-bipiperidine for CHO-K1 Cell Membranes In Vitro
Membranes, prepared from CHO-K1 cells stably expressing recombinant human CCR3, suspended in assay buffer (50 mM Tris-Base, pH 7.4; containing sodium chloride (100 mM) and magnesium chloride (2 mM)) were incubated in the presence of 2 nM [^3H]-4-(2,4-dichloro-3-methylphenoxy)-1′-[4-(methylsulfonyl)benzoyl]-1,4′-bipiperidine, along with vehicle (1% (v/v) DMSO), 4-(4-chloro-3-methylphenoxy)-1′-[2-(methylsulfonyl)benzoyl]-1,4′-bipiperidine (to define non-specific binding) or test compound for 2 h at 37° C. in round bottomed 96-well plates. The plates were then filtered onto GF/B filter plates, pre-soaked for 1 hour in plate-coating solution (0.3% (w/v) polyethylenimine, 0.2% (w/v) BSA in de-ionised water), using a 96-well plate Tomtec cell harvester. Four washes (250 μL) with wash buffer (50 mM Tris-Base, pH 7.4 containing sodium chloride (500 mM) and magnesium chloride (2 mM)) were performed at 4° C. to remove unbound radioactivity. Plates were dried and MicroScint-O (50 μL) was added to each well. The plates were sealed (TopSeal A) and filter-bound radioactivity was measured with a scintillation counter (TopCount, Packard BioScience) using a 1 minute counting protocol.
Specific binding was determined from values of the control wells minus the values for the NSB wells for each assay plate. pIC50 values were calculated using a four parameter logistic fit (where pIC50 is defined as the negative logarithm of the concentration of compound required for 50% reduction in specific [^3H]-4-(2,4-dichloro-3-methylphenoxy)-1′-[4-(methylsulfonyl)benzoyl]-1,4′-bipiperidine binding). Data were presented as mean pKi values (calculated by applying a Cheng-Prussof correction to pIC50 values) from a minimum of 2 separate experiments.
Background: Loss of bound radioactivity is the signal in a displacement assay; it reports binding, not function.

In general, CLint scaled refers to the rate of metabolic loss divided by the concentration. High values mean rapid turnover, low ones slow turnover. Molecule `O=C(CCc1cccc(C(=O)O)c1)NC1CCN(Cc2ccc(Cl)c(Cl)c2)CC1` [Example 4, 3-{2-[1-(3,4-Dichloro-benzyl)-piperidin-4-ylcarbamoyl]-ethyl}-benzoic acid] yielded a CLint scaled at 1 µM in data set [1] below 3 mL/min/kg. In data set [2], the Ki was 79.4 nM.
With `O=C(CCc1ccc(C(=O)O)cc1)NC1CCN(Cc2ccc(Cl)c(Cl)c2)CC1` [Example 2, 4-{2-[1-(3,4-Dichloro-benzyl)-piperidin-4-ylcarbamoyl]-ethyl}-benzoic acid], the CLint scaled at 1 µM in data set [1] is below 3 mL/min/kg. Further, the Ki in data set [2] is 63.1 nM.
For `O=C(CCc1ccc2cc(C(=O)O)ccc2c1)NC1CCN(Cc2ccc(Cl)c(Cl)c2)CC1` [Example 6, 6-{2-[1-(3,4-Dichloro-benzyl)-piperidin-4-ylcarbamoyl]-ethyl}-naphthalene-2-carboxylic acid], in that order: below 3 mL/min/kg and 15.8 nM.
